Source: US20050129621A1, “Aerosol formulations for pulmonary administration of medicaments to produce a systemic effect” (Chiesi Farmaceutici S.P.A., priority 2002, published 2005)
Where two headings read alike, the source gives them in different places.

Assays:
[1] = Stability study of pMDI formulations in coated aluminum cans, HPLC; conditions: 25° C., six months
Method: The recovery of diisobutyryl apomorphine was determined by HPLC.
The leuprolide acetate content was determined by HPLC.

[2] = Solubility studies in HFA pMDI formulations (visual assessment for crystal growth)
Method: The assembly of the pMDI cans was carried out using hand operated crimping and filling equipment. Formulations were prepared by accurately weighing the required quantity of drug into the can or vial. The appropriate volume of ethanol and the other co-solvent if required in the formulation, was then added. The valve was crimped onto the vial/can and the assembled vial/can was ultra-sonicated for approximately 10 minutes. The HFA propellant was filled through the valve and the pMDI was ultra-sonicated for a further 10 minutes. […] Final compositions were calculated as percentage w/v for the active ingredient and as percentage w/w for the co-solvents.
All solubility investigations were conducted in plastic coated glass pMDI vials fitted with continuous spray valves. Once produced the medicament-HFA solution pMDIs were stored in refrigerator at 4° C. (±0.1° C.). The pMDI vials were removed periodically and the vials assessed visually with the aid of a polarized light unit for crystal growth.

[3] = Cascade impaction studies (Andersen Cascade Impactor), aerosol delivery characteristics; type: physicochemical
Method: All impaction studies were conducted with formulations contained in cut edge anodised aluminium cans fitted with 50 μl or 100 μl valves. The studies were carried out using an Andersen Cascade Impactor (ACI) fitted with a USP XXII metal throat entry port.
The HFA solution formulations were discharged into the ACI through actuators having an orifice diameter from 0.14 to 0.45 mm. Deposition of the drug on each ACI plate was determined by high pressure liquid chromatography (HPLC).
MMAD values and corresponding geometric standard deviation (GSD) were calculated from plots of the cumulative percentage undersize of drug collected on each ACI plate (probit scale), against the upper cut off diameter for each respective ACI plate (log10 scale).
The following parameters were determined: the metered dose, which is the sum of the dose delivered through the Andersen apparatus plus the active ingredient residue deposited on the device actuator; the cumulative amount of active particles deposited on the various ACI stages; the amount on the actuator; the amount in the adaptor and in the throat (adp/throat); the fme particle dose or respirable dose (FPD) which is the amount of particles deposited on stages 3 to filter of the ACI and corresponds to the amount of particles of size less than 4.7 μm; the fine particle fraction or respirable fraction which is the ratio between the respirable dose and the dose delivered ex-actuator.
The cans were provided with actuators with an orifice diameter of 0.22 mm.
Two ACI deposition determinations were performed with each formulation. Twenty shots were discharged into the ACI.
The cans were provided with actuators with an orifice diameter of 0.14 mm.
Two ACI deposition determinations were performed with the formulation. Ten shots were discharged into the ACI.

[4] = 0.5% and 1% w/v in HFA 134a, 5% w/w ethanol, 0.1% w/w glycerol, actuator orifice 0.22 mm
[5] = 0.04% w/v (40 μg/100 μl) in HFA 134a, 15% w/w ethanol, 2% w/w water, actuator orifice 0.14 mm
[6] = 0.08% w/v (80 μg/100 μl) in HFA 134a, 18% w/w ethanol, 3% w/w water, actuator orifice 0.14 mm

Compound	degradation ([1]; formulation of Example 1, coated aluminum cans upright and inverted)	difference between cans stored upright and inverted ([1]; formulation of Example 1, coated aluminum cans)	concentration at which formulations are soluble ([2]; in HFA 134a or HFA 227, various percentages of ethanol, stored at 4° C.)	MMAD [3, 4]	amount of active particles of sizes from 0.43 to 3.3 μm [3, 4]	fine particle fraction (FPF) [3, 4]	change of solubility when water was added [2]	concentration at which formulations are soluble [2]	MMAD [3, 5]	amount of active particles of sizes from 0.43 to 3.3 μm [3, 5]	fine particle fraction (FPF) [3, 5]	MMAD [3, 6]	amount of active particles of sizes from 0.43 to 3.3 μm [3, 6]	fine particle fraction (FPF) [3, 6]
CC(C)C(=O)Oc1ccc2c(c1OC(=O)C(C)C)-c1cccc3c1[C@@H](C2)N(C)CC3 [diisobutyryl apomorphine]	minimal degradation	no significant difference	up to 1 % w/v	about 2.0 μm	≥ 60%	70-75%	–	–	–	–	–	–	–	–
CCNC(=O)[C@@H]1CCCN1C(=O)[C@H](CCCNC(=N)N)NC(=O)[C@H](CC(C)C)NC(=O)[C@@H](CC(C)C)NC(=O)[C@H](Cc1ccc(O)cc1)NC(=O)[C@H](CO)NC(=O)[C@H](Cc1c[nH]c2ccccc12)NC(=O)[C@H](Cc1c[nH]cn1)NC(=O)[C@@H]1CCC(=O)N1 [leuprolide acetate]	–	–	–	–	–	–	significant increase	up to 0.26 % w/v	about 1.0 μm	≥ 61%	at least 72%	about 1.3 μm	≥ 52%	at least 59%
